According to patent US20220062299A1, “USE OF GLUCOCORTICOID STEROIDS IN PREVENTING AND TREATING CONDITIONS OF MUSCLE WASTING, AGING AND METABOLIC DISORDER” (NORTHWESTERN UNIVERSITY, priority 2018, published 2022):

Tests used:
[1] = tested on: mdx mice; experiment: Glycemia monitoring, insulin sensitivity, glucose and pyruvate tolerance tests, adipocyte histology in mdx mice; format: in vivo, mouse
Protocol: Glucose was measured in blood (first drop from tail venipuncture) or serum (5 μl of 1:2 dilution) with an AimStrip Plus glucometer system (Germaine Laboratories, San Antonio, Tex.) and expressed as mg/dl values. Lactate was measured in blood (second drop from tail venipuncture) or serum (5 μl of 1:2 dilution) with a Lactate Plus reader (Nova Biomedical, Waltham, Mass.) and expressed as mM values. Fasting glycemia was measured in mice after 4 hours fasting (7 AM-11 AM). Glucose, insulin and pyruvate tolerance tests were conducted after 4 hours fasting in individual cages immediately after baseline fasting glucose monitoring. Mice were injected with either 1 g/kg glucose (#D8375-1 g; Millipore Sigma, St Louis, Mo.), or 0.5 U/kg insulin (#12585014; Thermo Fisher, Waltham, Mass.), or 2.5 g/kg pyruvate (#P5280-25 g; Millipore Sigma, St Louis, Mo.) in 200 μl intraperitoneal injections, and glucose was then monitored by tail venipuncture at 10 min, 20 min, 30 min, 60 min, 120 min after injection. All glucose and pyruvate tolerance tests were conducted blinded to treatment groups.
Histology. Excised tissues (muscles, omental fat, heart) were placed in 10% formaldehyde (Cat #245-684; Fisher Scientific, Waltham, Mass.) for histologic processing. Seven μm sections from the center of paraffin-embedded muscles were stained with hematoxylin and eosin (H&E; cat #12013B, 1070C; Newcomer Supply, Middleton, Wis.) and Masson's trichrome (Cat #HT-15; Sigma-Aldrich; St. Louis, Mo.). Myofiber/adipocyte CSA quantitation was conducted on 400 myofibers/adipocytes per tissue per mouse. Imaging was performed using a Zeiss Axio Observer A1 microscope, using 10× and 20× (short-range) objectives. Brightfield pictures were acquired via Gryphax software (version 1.0.6.598; Jenoptik, Jena, Germany). Area quantitation was performed by means of ImageJ (Schneider et al., 2012). Sample processing, imaging and CSA quantitation were conducted blinded to treatment groups.

[2] = tested on: BCKDHA and mTOR pathway members in mdx muscle; experiment: Protein analysis of BCKDHA and mTOR pathway members in mdx muscle; format: in vivo, mouse; details: weekly prednisone
Protocol: Animal handling and steroid regimens. Mice were housed in a pathogen-free dedicated vivarium in accordance with Institutional Animal Care and Use Committee (IACUC) guidelines. Euthanasia was performed through carbon dioxide inhalation followed by cervical dislocation and heart removal. All methods using living animals in this study were performed in ethical accordance with the American Veterinary Medical Association (AVMA) and under protocols fully approved by both the Institutional Animal Care and Use Committee (IACUC) at Northwestern University Feinberg School of Medicine (protocol number ISO00000761). Consistent with the ethical approvals, all efforts were made to minimize suffering. Mice were fed ad libitum with Mouse Breeder Sterilizable Diet (#7904; Harlan Teklad, Indianapolis, Ind.) and maintained on a 12-hour light/dark cycle. mdx mice from the DBA/2J background were obtained from the Jackson Laboratory (Bar Harbor, Me.; stock #013141) and interbred. Male mice were used for reported experiments. Age at start was approximately 6 months for short-term experiments, approximately 6 weeks for long-term experiments. Dysferlin-null (Dysf-null) mice from the 129T2/SvEmsJ background were previously characterized (Demonbreun et al., 2011; Demonbreun et al., 2014). Age at start was approximately 9 months for long-term experiments. For experiments with Dysf-null and wildtype mice, both females and males (approximately 1:1 ratio) were randomized in treatment groups. […] Dosing was based on weekly weight measurements (1 mg/kg body weight, (Sali et al., 2012)) in 100 μl total PBS volume per dose. Mice were injected daily via intraperitoneal injection at 7 AM. On injection days, stock solutions stored at −20° C. were diluted into sterile Eppendorf tubes containing sterile phosphate buffered saline (PBS) (#14190; Thermo Fisher, Waltham, Mass.). Puromycin (cat #A1113803, Thermo Scientific, Waltham, Mass.) was administered i.p. as 0.040 μmol/body g, and tissues were snap-frozen 30 minutes after injection. Sterile BD Micro-Fine IV Insulin Syringes (#14-829-1A; Fisher Scientific, Waltham, Mass.) were used to inject the intraperitoneal cavity of non-sedated animals. All animal analyses both during treatment and at endpoint were conducted blinded to treatment groups.
Protein analysis. Protein lysates from approximately 50 mg muscle tissue were obtained with homogenization at the TissueLyser II (cat #85300; Qiagen, Hilden, Germany) for two rounds of 2 minutes each with 2 minutes pause in between, using sample plates chilled at −20° C. o/n and one stainless 5 mm bead per sample (cat #69989; Qiagen, Hilden, Germany). […]

[3] = mdx muscle, 12-week-long treatment

C[C@]12C=CC(=O)C=C1CC[C@@H]1[C@@H]2C(=O)C[C@@]2(C)[C@H]1CC[C@]2(O)C(=O)CO [prednisone, Prednisone]
adipocyte hypertrophy ([1]; daily prednisone): induced adipocyte hypertrophy | endpoint glucose and pyruvate tolerance tests ([1]; daily prednisone): induced glucose intolerance and pyruvate intolerance | glucose homeostasis ([1]; daily prednisone): impaired | insulin resistance ([1]; daily prednisone): induced insulin resistance | Glycemia ([1]; daily prednisone, over treatment): progressively increased | endpoint glucose tolerance test ([1]; weekly prednisone): did not increase glucose intolerance | insulin sensitivity ([1]; weekly prednisone): higher | levels of mTOR-bound RagC and phosphorylation of S6K and 4EBP1 [2, 3]: increased | protein translation and muscle mass (puromycin incorporation and myofiber size) [2, 3]: increased | phosphorylation of BCKDHA ([2]; quadriceps muscle of mdx mice): reduced | total levels of branched chain keto acid dehydrogenase (BCKDHA) ([2]; quadriceps muscle of mdx mice): increased
